ChEMBL document CHEMBL1201862, “PubChem BioAssay data set” (2004)
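Method: 48-hour compound exposure of cells in 96-well plates, five concentrations, linear interpolation of endpoints. At the GI50, growth is halved.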 Calls of active or inactive are those of the source. No stated cut-off is given here; in the data, active = GI50 up to about 1.1 µM and inactive = higher.

Legend:
Experiment in all cases: inhibition of tumour cell growth, NCI panel, 48 h
786-0 = tested on: 786-0
A498 = tested on: A498
A549 = tested on: A549
ACHN = tested on: ACHN
CAKI-1 = tested on: CAKI-1
CCRF-CEM = tested on: CCRF-CEM
COLO 205 = tested on: COLO 205
DLD-1 = tested on: DLD-1
DMS-273 = tested on: DMS-273
EKVX = tested on: EKVX
HCC 2998 = tested on: HCC 2998
HCT-116 = tested on: HCT-116
HCT-15 = tested on: HCT-15
HL-60 = tested on: HL-60
HOP-18 = tested on: HOP-18
HOP-62 = tested on: HOP-62
HOP-92 = tested on: HOP-92
HT-29 = tested on: HT-29
IGROV-1 = tested on: IGROV-1
K562 = tested on: K562
KM-20L2 = tested on: KM-20L2
KM12 = tested on: KM12
LOX IMVI = tested on: LOX IMVI
LXFL 529 = tested on: LXFL 529
M14 = tested on: M14
M19-MEL = tested on: M19-MEL
MOLT-4 = tested on: MOLT-4
Malme-3M = tested on: Malme-3M
NCI-H226 = tested on: NCI-H226
NCI-H23 = tested on: NCI-H23
NCI-H460 = tested on: NCI-H460
NCI-H522 = tested on: NCI-H522
OVCAR-3 = tested on: OVCAR-3
OVCAR-4 = tested on: OVCAR-4
OVCAR-5 = tested on: OVCAR-5
OVCAR-8 = tested on: OVCAR-8
RPMI-8226 = tested on: RPMI-8226
RXF 393 = tested on: RXF 393
RXF 631 = tested on: RXF 631
SF-268 = tested on: SF-268
SF-295 = tested on: SF-295
SF-539 = tested on: SF-539
SK-MEL-28 = tested on: SK-MEL-28
SK-MEL-2 = tested on: SK-MEL-2
SK-MEL-5 = tested on: SK-MEL-5
SK-OV-3 = tested on: SK-OV-3
SN12C = tested on: SN12C
SNB-19 = tested on: SNB-19
SNB-75 = tested on: SNB-75
SNB-78 = tested on: SNB-78
SR = tested on: SR
TK-10 = tested on: TK-10
U-251 = tested on: U-251
UACC-257 = tested on: UACC-257
UACC-62 = tested on: UACC-62
UO-31 = tested on: UO-31
XF498 = tested on: XF498
DMS-114 = tested on: DMS-114
SW-620 = tested on: SW-620

In the case of O=C1C[S+]([O-])c2ccccc2N1 (stereo not given), the GI50 (786-0) is reported as > 100 µM (inactive), the GI50 (A498) is reported as > 100 µM (inactive) and the GI50 (A549) is reported as > 100 µM (inactive). For the same compound, the GI50 (ACHN) was > 100 µM (inactive), the GI50 (CAKI-1) was > 100 µM (inactive) and the GI50 (CCRF-CEM) was > 100 µM (inactive). For the same compound, the GI50 (COLO 205) was 30.8 µM (inactive), the GI50 (DLD-1) was > 100 µM (inactive) and the GI50 (DMS-273) was 16.8 µM (inactive). The GI50 (EKVX) was > 100 µM (inactive), the GI50 (HCC 2998) was > 100 µM (inactive) and the GI50 (HCT-116) was 71.1 µM (inactive). For the same compound, the GI50 (HCT-15) was > 100 µM, the GI50 (HL-60) was > 100 µM (inactive) and the GI50 (HOP-18) was > 100 µM (inactive). The GI50 (HOP-62) was > 100 µM (inactive), the GI50 (HOP-92) was > 100 µM (inactive) and the GI50 (HT-29) was > 100 µM (inactive). For the same compound, the GI50 (IGROV-1) was > 100 µM (inactive), the GI50 (K562) was > 100 µM (inactive) and the GI50 (KM-20L2) was > 100 µM (inactive). For the same compound, the GI50 (KM12) was > 100 µM (inactive), the GI50 (LOX IMVI) was 52.6 µM (inactive) and the GI50 (LXFL 529) was > 100 µM (inactive). The GI50 (M14) was > 100 µM (inactive), the GI50 (M19-MEL) was > 100 µM (inactive) and the GI50 (MOLT-4) was > 100 µM (inactive). For the same compound, the GI50 (Malme-3M) was > 100 µM (inactive), the GI50 (NCI-H226) was > 100 µM (inactive) and the GI50 (NCI-H23) was > 100 µM (inactive). For the same compound, the GI50 (NCI-H460) was 66.1 µM (inactive), the GI50 (NCI-H522) was > 100 µM (inactive) and the GI50 (OVCAR-3) was > 100 µM (inactive). For the same compound, the GI50 (OVCAR-4) was > 100 µM (inactive), the GI50 (OVCAR-5) was > 100 µM (inactive) and the GI50 (OVCAR-8) was > 100 µM (inactive). For the same compound, the GI50 (RPMI-8226) was 45.8 µM (inactive), the GI50 (RXF 393) was > 100 µM (inactive) and the GI50 (RXF 631) was > 100 µM (inactive). The GI50 (SF-268) was 71.8 µM (inactive), the GI50 (SF-295) was > 100 µM (inactive) and the GI50 (SF-539) was > 100 µM (inactive). For the same compound, the GI50 (SK-MEL-28) was 55.1 µM (inactive), the GI50 (SK-MEL-2) was > 100 µM (inactive) and the GI50 (SK-MEL-5) was > 100 µM (inactive). For the same compound, the GI50 (SK-OV-3) was > 100 µM (inactive), the GI50 (SN12C) was > 100 µM (inactive) and the GI50 (SNB-19) was > 100 µM (inactive). The GI50 (SNB-75) was > 100 µM (inactive), the GI50 (SNB-78) was > 100 µM (inactive) and the GI50 (SR) was 45.5 µM (inactive). For the same compound, the GI50 (TK-10) was > 100 µM (inactive), the GI50 (U-251) was > 100 µM (inactive) and the GI50 (UACC-257) was > 100 µM (inactive). For the same compound, the GI50 (UACC-62) was > 100 µM (inactive), the GI50 (UO-31) was > 100 µM (inactive) and the GI50 (XF498) was > 100 µM (inactive).
COc1nc2c(nc(N)n2C2OC(CO)C(O)C(O)C2O)c(=O)n1C (stereo not given) was tested, and the GI50 (786-0) was > 100 µM (inactive), the GI50 (A498) was > 100 µM (inactive) and the GI50 (A549) was > 100 µM (inactive). For the same compound, the GI50 (ACHN) was > 100 µM (inactive), the GI50 (CAKI-1) was > 100 µM (inactive) and the GI50 (CCRF-CEM) was > 100 µM (inactive). The GI50 (COLO 205) was > 100 µM (inactive), the GI50 (DLD-1) was > 100 µM (inactive) and the GI50 (DMS-114) was > 100 µM (inactive). The GI50 (EKVX) was > 100 µM (inactive), the GI50 (HCC 2998) was > 100 µM (inactive) and the GI50 (HCT-116) was > 100 µM (inactive). For the same compound, the GI50 (HL-60) was > 100 µM (inactive), the GI50 (HOP-18) was > 100 µM (inactive) and the GI50 (HOP-62) was > 100 µM (inactive). The GI50 (HOP-92) was > 100 µM (inactive), the GI50 (HT-29) was > 100 µM (inactive) and the GI50 (IGROV-1) was > 100 µM (inactive). For the same compound, the GI50 (K562) was > 100 µM (inactive), the GI50 (KM-20L2) was > 100 µM (inactive) and the GI50 (KM12) was > 100 µM (inactive). For the same compound, the GI50 (LOX IMVI) was > 100 µM (inactive), the GI50 (LXFL 529) was > 100 µM (inactive) and the GI50 (M14) was > 100 µM (inactive). For the same compound, the GI50 (M19-MEL) was > 100 µM (inactive), the GI50 (Malme-3M) was > 100 µM (inactive) and the GI50 (NCI-H226) was > 100 µM (inactive). For the same compound, the GI50 (NCI-H23) was > 100 µM (inactive), the GI50 (NCI-H460) was > 100 µM (inactive) and the GI50 (NCI-H522) was > 100 µM (inactive). For the same compound, the GI50 (OVCAR-3) was > 100 µM (inactive), the GI50 (OVCAR-4) was > 100 µM (inactive) and the GI50 (OVCAR-8) was > 100 µM (inactive). The GI50 (RXF 393) was > 100 µM (inactive), the GI50 (RXF 631) was > 100 µM (inactive) and the GI50 (SF-268) was > 100 µM (inactive). The GI50 (SF-295) was > 100 µM (inactive), the GI50 (SF-539) was > 100 µM (inactive) and the GI50 (SK-MEL-28) was > 100 µM (inactive). The GI50 (SK-MEL-5) was > 100 µM (inactive), the GI50 (SK-OV-3) was > 100 µM (inactive) and the GI50 (SN12C) was > 100 µM (inactive). The GI50 (SNB-19) was > 100 µM (inactive), the GI50 (SNB-75) was > 100 µM (inactive) and the GI50 (SNB-78) was > 100 µM (inactive). For the same compound, the GI50 (SR) was > 100 µM (inactive), the GI50 (SW-620) was > 100 µM (inactive) and the GI50 (TK-10) was > 100 µM (inactive). For the same compound, the GI50 (U-251) was > 100 µM (inactive), the GI50 (UACC-257) was > 100 µM (inactive) and the GI50 (UACC-62) was > 100 µM (inactive). The GI50 (UO-31) was > 100 µM (inactive) and the GI50 (XF498) was 75.3 µM (inactive).
